How the values were obtained:
IL-10 = experiment: Measurement of human IL-10 amount in culture supernatant of MT2 cells with ELISA kit (Test 1); assay type: cell-based; settings: 48±2 hours; for activity at 12.5 µM / activity at 25 µM: Homo sapiens, 48 h, DMSO control = 100%, read-out: % against control (IL-10 production)
Experimental: (§1) MT2 cells from human adult T-cell leukemia were used. Leukemia cells of human adult T-cell leukemia (ATL) express CD4 and CD25 molecules on the cell surface and are considered to be derived from Treg (Chen S. et al., International Immunology 18:269-277 (2005)). MT2 cells were used in experiments as models of Treg since the cells are CD4 positive, CD25 positive, and FOXP3 positive celles derived from ATL.
(§2) The example compounds (compounds 1-17) of the present invention were dissolved in dimethylsulfoxide (DMSO) to prepare each 50 mmol/L solution, which was preserved at −80° C.
The amount of IL-10 production in the control and the example compounds was measured to evaluate the inhibitory effect on IL-10 production of the example compounds of the present invention.
(1) MT2 cells are suspended in RPMI1640 medium (hereinafter referred to as “the medium”) supplemented with 10% fetal calf serum (FCS) and 1% penicillin/streptomycin (P/S) to give 3×10^5 cells/mL suspension, and 1 mL of the suspension was added to each well of a 24-well plate. […] The cell cultures were incubated 48±2 hours in a CO2 incubator (under a condition of 37° C., 5 CO2). DMSO was diluted 50-fold with the medium, and 20 μL of the diluent was added to the well to make a control of compounds 1-7. In addition, DMSO was diluted 50-fold with the medium, and 25.0 μL of the diluent was added to the well to make a control of compounds 8-17.
(2) A piece of the cell culture was sampled to count cells with a cell counter (BIO RAD TC-20). The cell culture was centrifuged at 300×g for 5 minutes and the supernatant was collected as a sample for IL-10 measurement. When not measured within a day, it was preserved in a freezer at −80° C.
(3) Human IL-10 ELISA kit II (BD OptEIA) was used on the measurement. The kit contains wells treated with anti-IL-10 antibody (8 wells/strip), Standard/Sample diluent, vials comprising freeze-dried IL-10 Standard (1280 pg/vial), ELISA diluent, 20× Wash Buffer, Detection antibody, Enzyme Concentrate, TMB One Step Substrate Reagent, Stop Solution, and cover sheets.
(4) To a vial containing IL-10 Standard was added […] Standard/Sample diluent, and the vial was stood at room temperature for 15 minutes to be dissolved (Standard sample stock solution 1L-10 concentration: 500 pg/mL).
(5) Standard samples in each concentration for making a standard curve were prepared as follows. Firstly, to 300 μL of the medium was added 300 μL of the standard sample stock solution, and the mixture was mixed with a Voltex mixer (250 pg/mL). Next, 300 μL of the standard sample of 250 pg/mL was added to 300 μL of the medium and the mixture was mixed with a Voltex mixer (125 pg/mL). The same procedures were successively repeated to prepare standard solutions of 62.5, 31.25, 15.625, and 7.8125 pg/mL. As 0 pg/mL standard solution, the medium was used.
(6) A kit containing wells treated with anti-IL-10 antibody (8 wells/strip) was warmed to room temperature and 50 μL of ELISA diluent in the kit was added into each well.
(7) To each well containing ELISA diluent, 100 μL of the standard samples of each concentration and each test sample (diluded 50-100 fold with medium) were added.
(8) After the wells were sealed with a cover sheet and gently tapped, they were left at room temperature for 2 hours.
(9) 20× Wash Buffer was diluted 20-fold with water to prepare 1× Wash Buffer.
(10) After the reaction was done for 2 hours, the solutions in each well were aspirated and washed 5 times with 300 μL of 1× Wash Buffer.
(11) After Enzyme Concentrate (4 μL per 8 wells) was added to Detection antibody (1 ml per 8 wells), the solution was mixed by a Vortex mixer and then a necessary amount of Working Detector was prepared.
(12) 100 μL of Working Detector was added to each well, covered with a cover sheet, and the wells were left at room temperature for an hour.
(13) After the reaction was done for an hour, the solutions in wells were aspirated and washed 7 times with 300 μL of 1× Wash Buffer. […]

CTLA-4 = experiment: Intracellular staining of MT2 cells with fluorescence-labeled anti-CTLA-4 antibody and measurement by flow cytometry; assay type: cell-based, human; settings: 48±2 hours; for Peak MFI of CTLA-4: isotype IgG2a subtracted, average of n=3
Experimental: as §1, §2
(1) MT2 cells were suspended in RPMI1640 medium (hereinafter referred to as “the medium”) supplemented with 10% fetal calf serum (FCS) and 1° penicillin/streptomycin (P/S) to give 3×10^5 cells/mL suspension and 3 mL of the suspension was added to each well of a 6-well plate. To each well were added 0.6 or 1.2 μL of the test compound solutions (compounds 1, 2, and 4), 0.75 or 1.5 μL of the test compound solution (compound 9), and 1.5 μL of the test compound solutions (compounds 8 and 10-17), and the cell cultures were incubated in a CO2 gas incubator (under 37° C., 5% CO2) and cultured for 48±2 hours. As a control of compound 1, 2 and 4, only 1.2 μL of DMSO was added to the well. In addition, as a control of compound 8-17, only 1.5 μL of DMSO was added to the well.
(2) A piece of the cell culture was sampled to count cells with a cell counter (BIO RAD TC-20). The cell culture was centrifuged at 300×g for 5 min, and the supernatant was removed. The residue was suspended in phosphate buffered saline (supplemented with 1% bovine serum albumin (BSA), without calcium and magnesium) (1% BSA/PBS) to adjust the concentration of cells to 5-10×10^6 cells/mL.
(3) To 5 ml tube, each 50 μL of the cell suspension was added.
(4) Foxp3/Transcription Factor Fix/Perm Concentrate (4×) (Cat. No. TNB-1020-L050) (Solution A) in FOXP3/Transcription Factor Staining kit (TONBO biosciences) was diluted with Foxp3/Transcription Factor Fix/Perm Diluent (1×) (Cat. No. TNB-1022-L160) (for dilution of Solution A) to prepare 1× Solution A.
(5) 1 mL of 1× Solution A was added to each tube and mixed by gentle pipetting. Subsequently, it was left at room temperature for 30 min, centrifuged at 300×g for […], and the supernatant was discarded.
(6) Flow Cytometry Perm Buffer (10×) (Cat. No. TNB-1213-L150) (Solution B) in the kit was diluted 10-fold with water to prepare 1× Solution B.
(7) 2 mL of 1× Solution B was added to the tube and centrifuged at 300×g for 5 min. The supernatant was discarded. 2 μL of 2% normal mouse serum/PBS was added to the tube and the tube was gently pipetted. Subsequently, it was left at room temperature for 15 min.
(8) In the CTLA-4 measurement, 20 μL of anti-CTLA-4 antibody (BECKMAN COULTER, CD152-PE clone BN13I M2282) or mouse IgG2a (BECKMAN COULTER, IgG2a (Mouse)-PE A09142) for the control was added to the tube and the tube was gently stirred. Subsequently, it was left in the dark at room temperature for 30 min, and 2 mL of the 1× Solution B was added thereto, the mixture was centrifuged at 300×g for 5 min, and the supernatant was discarded. 2 mL of the 1× Solution B was added to the tube again, the mixture was centrifuged at 300×g for 5 min, and the supernatant was discarded.
(9) Within 2 hours after the solution in the tube was suspended in 0.5 mL of 1% BSA/PBS, and the fluorescence at 577 nm was measured with 488 nm excitation with a flow cytometer (Sony: Cell Sorter SH800). The results were analyzed with software, FlowJo (Tree Star Inc.). The mean peak fluorescence intensity (MFI) of CTLA-4 and mean peak fluorescence intensity of isotype control IgG2a were calculated from histgrams of the measured fluorescence intensity and number of cells, and mean fluorescence intensity of IgG2a was subtracted from that of CTLA-4. Experiments were conducted in n=3, and the average values were shown.

[1] = Homo sapiens, 48 h, 25.0 μmol/L, DMSO control = 100%, read-out: % against control (CTLA-4 expression)

Row | SMILES | IL-10 (ng/10^6 cells) ± standard deviate (n = 3) (IL-10; 12.5 μmol/L) [ng/10^6 cells] | IL-10 (ng/10^6 cells) ± standard deviate (n = 3) (IL-10; 25.0 μmol/L) [ng/10^6 cells] | activity at 12.5 µM (IL-10; 12.5 μmol/L) [%] | activity at 25 µM (IL-10; 25.0 μmol/L) [%] | Peak MFI of CTLA-4 (CTLA-4; 25.0 μmol/L) | activity at 25 µM (CTLA-4; [1]) [%] | Peak MFI of CTLA-4 (CTLA-4; 12.5 μmol/L) | activity at 12.5 µM (CTLA-4; Homo sapiens, 48 h, 12.5 μmol/L, DMSO control = 100%, read-out: % against control (CTLA-4 expression)) [%]
1 | COC(=O)C1=CN2CCc3c([nH]c4cc(OC)ccc34)[C@@H]2[C@@H]2[C@@H](C)[C@@H](O)C[C@H]12 [Compound 8] | 15.5 ± 1.2 | 7.9 ± 0.4 | 94.6 | 48.4 | 361 | 50 |  | 
2 | COC(=O)C1=CN2CCc3c([nH]c4cc(Cl)ccc34)[C@@H]2[C@@H]2[C@@H](C)[C@@H](O)C[C@H]12 [Compound 9] | 11.1 ± 1.3 | 6.1 ± 1.3 | 67.7 | 37.5 | 539 | 52.8 | 778 | 76.3
3 | COC(=O)C1=CN2CCc3c([nH]c4ccc(OC)cc34)[C@@H]2[C@@H]2[C@@H](C)[C@@H](O)C[C@H]12 [Compound 10] | 8.8 ± 0.4 | 5.6 ± 0.3 | 93.5 | 59.6 | 570 | 56.3 |  | 
4 | COC(=O)C1=CN2CCc3c([nH]c4c(C)cccc34)[C@@H]2[C@@H]2[C@@H](C)[C@@H](O)C[C@H]12 [Compound 11] | 7.4 ± 0.2 | 5.6 ± 0.3 | 78.2 | 55.4 | 602 | 59.5 |  | 
5 | COC(=O)C1=CN2CCc3c([nH]c4ccc(Cl)cc34)[C@@H]2[C@@H]2[C@@H](C)[C@@H](O)C[C@H]12 [Compound 12] | 7.1 ± 0.2 | 4.8 ± 0.3 | 75.7 | 50.9 | 485 | 57.2 |  | 
6 | COC(=O)C1=CN2CCc3c([nH]c4ccc(Br)cc34)[C@@H]2[C@@H]2[C@@H](C)[C@@H](O)C[C@H]12 [Compound 13] | 7.7 ± 0.6 | 4.2 ± 0.2 | 81.2 | 44 | 775 | 91.6 |  | 
